Assay results as given in patent publication US7723320B2, “Use of estrogen compounds to increase libido in women” (Pantarhei Bioscience B.V., priority 2001, dated 2010).
“And” between values parts separate entries of the source, which are not always exact repeats. Identical values can stand only once. Like-named read-outs stand apart in the source and are kept apart here.

Experiments:
[1] = tritium labeled, intravenous, two adult women; cited from earlier work
[2] = tested on: ovariectomized adult rats; test: Vaginal cornification bioassay in ovariectomized rats; type: in vivo, rat
Description: Uterine weight increase in the rat is more commonly used as a measure of estrogenicity. […] In the early 1920s it was discovered that follicular fluid from the pig ovary contained a factor(s) that caused cornification/keratinization of the vaginal epithelium in the rat (Allen and Doisy, 1923, JAMA, 81,819-821; Allen and Doisy, 1924, Am. J. Physiol., 69, 577-588). The so-called vaginal cornification response in rats subsequently provided a bioassay for testing estrogenicity. Vaginal epithelial cornification/keratinization in ovariectomized rats can be produced only by compounds considered to be true estrogens (Jones et al, 1973, Fert. Steril. 24, 284-291). […] Adult intact female CD rats were ovariectomized to induce estrogen deficiency. […] Castrate vaginal smears are indicative that complete ovanectomy was achieved. Treatment commenced following completion of the 7 days of smearing (day 0=first day of dosing). Animals were dosed, once daily for 7 consecutive days. Daily vaginal lavages continued to be obtained for 7 days after dosing was initiated in order to detect vaginal cornification, as an indication of an estrogenic response. A drop of vaginal washings was placed on a glass slide and examined by light microscopy to detect the presence or absence of cornified epithelial cells. Vaginal lavages were obtained prior to dosing on days 0-6 and prior to necropsy on day 7. The vaginal cornification bioassay was performed in order to determine the estrogenic profile of E4 when given subcutaneously (sc) to ovariectomized adult rats. E2 was used as a positive control. […] The vaginal cornification bioassay was performed in order to determine the estrogenic profile of E4 when given orally (po) to ovariectomized adult rats. EE was used as a positive control. […] A vaginal estrogenic response occurred in all rats (8/8) given 50 μg/kg/day EE po by day 7 (Table 2).

[3] = target: T1, estrogen receptor in the human endometrium (Homo sapiens, UniProt P03372); details: Tseng et al., 1976; cited from earlier work
T1 construct: estrogen receptors in the human endometrium; host or cells: human endometrium (nuclei)
T1 sequence (P03372 1-595): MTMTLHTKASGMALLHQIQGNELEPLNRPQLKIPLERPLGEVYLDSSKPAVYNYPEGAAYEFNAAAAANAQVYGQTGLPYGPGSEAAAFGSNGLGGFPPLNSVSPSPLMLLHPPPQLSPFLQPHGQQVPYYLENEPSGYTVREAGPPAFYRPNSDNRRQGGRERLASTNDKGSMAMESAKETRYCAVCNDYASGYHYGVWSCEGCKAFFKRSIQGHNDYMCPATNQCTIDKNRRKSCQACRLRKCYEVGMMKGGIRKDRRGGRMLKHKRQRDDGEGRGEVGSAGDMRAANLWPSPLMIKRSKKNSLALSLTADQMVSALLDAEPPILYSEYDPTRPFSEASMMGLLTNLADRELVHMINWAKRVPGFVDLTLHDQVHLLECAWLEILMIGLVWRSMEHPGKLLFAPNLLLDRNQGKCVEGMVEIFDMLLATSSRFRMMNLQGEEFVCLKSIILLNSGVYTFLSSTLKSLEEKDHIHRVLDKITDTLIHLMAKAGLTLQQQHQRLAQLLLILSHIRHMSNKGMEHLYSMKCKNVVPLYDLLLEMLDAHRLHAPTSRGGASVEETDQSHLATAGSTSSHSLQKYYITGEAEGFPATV

immature rat uterus = details: subcutaneously administered, Holinka et al., cited from earlier work

C[C@]12CC[C@@H]3c4ccc(O)cc4CC[C@H]3[C@@H]1[C@@H](O)[C@@H](O)[C@@H]2O [E4, 1,3,5(10)-estratrien-3,15α,16α,17β-tetrol]
excretion [1]: rapidly and completely excreted in urine as the glucosiduronate | metabolism [1]: virtually no metabolism except for conjugation | Number of Rats Exhibiting Estrogenic Response/Number of Rats Treated ([2]; po, 0.1 mg/kg/day, Day 0): 0/8 | Number of Rats Exhibiting Estrogenic Response/Number of Rats Treated ([2]; po, 0.1 mg/kg/day, Day 1): 0/8 | Number of Rats Exhibiting Estrogenic Response/Number of Rats Treated ([2]; po, 0.1 mg/kg/day, Day 2): 1/8 | Number of Rats Exhibiting Estrogenic Response/Number of Rats Treated ([2]; po, 0.1 mg/kg/day, Day 3): 7/8 | Number of Rats Exhibiting Estrogenic Response/Number of Rats Treated ([2]; po, 0.1 mg/kg/day, Day 4): 8/8 | Number of Rats Exhibiting Estrogenic Response/Number of Rats Treated ([2]; po, 0.1 mg/kg/day, Day 5): 8/8 | Number of Rats Exhibiting Estrogenic Response/Number of Rats Treated ([2]; po, 0.1 mg/kg/day, Day 6): 8/8 | Number of Rats Exhibiting Estrogenic Response/Number of Rats Treated ([2]; po, 0.1 mg/kg/day, Day 7): 8/8 | Number of Rats Exhibiting Estrogenic Response/Number of Rats Treated ([2]; po, 0.3 mg/kg/day, Day 0): 0/8 | Number of Rats Exhibiting Estrogenic Response/Number of Rats Treated ([2]; po, 0.3 mg/kg/day, Day 1): 0/8 | Number of Rats Exhibiting Estrogenic Response/Number of Rats Treated ([2]; po, 0.3 mg/kg/day, Day 2): 1/8 | Number of Rats Exhibiting Estrogenic Response/Number of Rats Treated ([2]; po, 0.3 mg/kg/day, Day 3): 7/8 | Number of Rats Exhibiting Estrogenic Response/Number of Rats Treated ([2]; po, 0.3 mg/kg/day, Day 4): 8/8 | Number of Rats Exhibiting Estrogenic Response/Number of Rats Treated ([2]; po, 0.3 mg/kg/day, Day 5): 8/8 | Number of Rats Exhibiting Estrogenic Response/Number of Rats Treated ([2]; po, 0.3 mg/kg/day, Day 6): 8/8 | Number of Rats Exhibiting Estrogenic Response/Number of Rats Treated ([2]; po, 0.3 mg/kg/day, Day 7): 8/8 | Number of Rats Exhibiting Estrogenic Response/Number of Rats Treated ([2]; po, 1.0 mg/kg/day, Day 0): 0/8 | Number of Rats Exhibiting Estrogenic Response/Number of Rats Treated ([2]; po, 1.0 mg/kg/day, Day 1): 0/8 | Number of Rats Exhibiting Estrogenic Response/Number of Rats Treated ([2]; po, 1.0 mg/kg/day, Day 2): 4/8 | Number of Rats Exhibiting Estrogenic Response/Number of Rats Treated ([2]; po, 1.0 mg/kg/day, Day 3): 8/8 | Number of Rats Exhibiting Estrogenic Response/Number of Rats Treated ([2]; po, 1.0 mg/kg/day, Day 4): 8/8 | Number of Rats Exhibiting Estrogenic Response/Number of Rats Treated ([2]; po, 1.0 mg/kg/day, Day 5): 8/8 | Number of Rats Exhibiting Estrogenic Response/Number of Rats Treated ([2]; po, 1.0 mg/kg/day, Day 6): 8/8 | Number of Rats Exhibiting Estrogenic Response/Number of Rats Treated ([2]; po, 1.0 mg/kg/day, Day 7): 8/8 | Number of Rats Exhibiting Estrogenic Response/Number of Rats Treated ([2]; po, 3.0 mg/kg/day, Day 0): 0/8 | Number of Rats Exhibiting Estrogenic Response/Number of Rats Treated ([2]; po, 3.0 mg/kg/day, Day 1): 0/8 | Number of Rats Exhibiting Estrogenic Response/Number of Rats Treated ([2]; po, 3.0 mg/kg/day, Day 2): 6/8 | Number of Rats Exhibiting Estrogenic Response/Number of Rats Treated ([2]; po, 3.0 mg/kg/day, Day 3): 8/8 | Number of Rats Exhibiting Estrogenic Response/Number of Rats Treated ([2]; po, 3.0 mg/kg/day, Day 4): 8/8 | Number of Rats Exhibiting Estrogenic Response/Number of Rats Treated ([2]; po, 3.0 mg/kg/day, Day 5): 8/8 | Number of Rats Exhibiting Estrogenic Response/Number of Rats Treated ([2]; po, 3.0 mg/kg/day, Day 6): 8/8 | Number of Rats Exhibiting Estrogenic Response/Number of Rats Treated ([2]; po, 3.0 mg/kg/day, Day 7): 8/8 | onset of vaginal cornification (animals responding at days 1-3), po versus sc ([2]; relatively low doses, e.g. 0.1 mg/kg/day): faster in po-treated | onset of vaginal epithelial cornification ([2]; sc 0.1, 0.3, 1.0 and 3.0 mg/kg/day): dose-dependent | Number of Rats Exhibiting Estrogenic Response/Number of Rats Treated ([2]; sc, 0.1 mg/kg/day, Day 0): 0/8 | Number of Rats Exhibiting Estrogenic Response/Number of Rats Treated ([2]; sc, 0.1 mg/kg/day, Day 1): 0/8 | Number of Rats Exhibiting Estrogenic Response/Number of Rats Treated ([2]; sc, 0.1 mg/kg/day, Day 2): 0/8 | Number of Rats Exhibiting Estrogenic Response/Number of Rats Treated ([2]; sc, 0.1 mg/kg/day, Day 3): 1/8 | Number of Rats Exhibiting Estrogenic Response/Number of Rats Treated ([2]; sc, 0.1 mg/kg/day, Day 4): 1/8 | Number of Rats Exhibiting Estrogenic Response/Number of Rats Treated ([2]; sc, 0.1 mg/kg/day, Day 5): 4/8 | Number of Rats Exhibiting Estrogenic Response/Number of Rats Treated ([2]; sc, 0.1 mg/kg/day, Day 6): 3/8 | Number of Rats Exhibiting Estrogenic Response/Number of Rats Treated ([2]; sc, 0.1 mg/kg/day, Day 7): 4/8 | Number of Rats Exhibiting Estrogenic Response/Number of Rats Treated ([2]; sc, 0.3 mg/kg/day, Day 0): 0/8 | Number of Rats Exhibiting Estrogenic Response/Number of Rats Treated ([2]; sc, 0.3 mg/kg/day, Day 1): 0/8 | Number of Rats Exhibiting Estrogenic Response/Number of Rats Treated ([2]; sc, 0.3 mg/kg/day, Day 2): 1/8 | Number of Rats Exhibiting Estrogenic Response/Number of Rats Treated ([2]; sc, 0.3 mg/kg/day, Day 3): 5/8 | Number of Rats Exhibiting Estrogenic Response/Number of Rats Treated ([2]; sc, 0.3 mg/kg/day, Day 4): 7/8 | Number of Rats Exhibiting Estrogenic Response/Number of Rats Treated ([2]; sc, 0.3 mg/kg/day, Day 5): 6/8 | Number of Rats Exhibiting Estrogenic Response/Number of Rats Treated ([2]; sc, 0.3 mg/kg/day, Day 6): 7/8 | Number of Rats Exhibiting Estrogenic Response/Number of Rats Treated ([2]; sc, 0.3 mg/kg/day, Day 7): 7/8 | Number of Rats Exhibiting Estrogenic Response/Number of Rats Treated ([2]; sc, 1.0 mg/kg/day, Day 0): 0/8 | Number of Rats Exhibiting Estrogenic Response/Number of Rats Treated ([2]; sc, 1.0 mg/kg/day, Day 1): 0/8 | Number of Rats Exhibiting Estrogenic Response/Number of Rats Treated ([2]; sc, 1.0 mg/kg/day, Day 2): 1/8 | Number of Rats Exhibiting Estrogenic Response/Number of Rats Treated ([2]; sc, 1.0 mg/kg/day, Day 3): 6/8 | Number of Rats Exhibiting Estrogenic Response/Number of Rats Treated ([2]; sc, 1.0 mg/kg/day, Day 4): 8/8 | Number of Rats Exhibiting Estrogenic Response/Number of Rats Treated ([2]; sc, 1.0 mg/kg/day, Day 5): 7/8 | Number of Rats Exhibiting Estrogenic Response/Number of Rats Treated ([2]; sc, 1.0 mg/kg/day, Day 6): 8/8 | Number of Rats Exhibiting Estrogenic Response/Number of Rats Treated ([2]; sc, 1.0 mg/kg/day, Day 7, 1 mg/kg/day): all rats and 8/8 | Number of Rats Exhibiting Estrogenic Response/Number of Rats Treated ([2]; sc, 3.0 mg/kg/day, Day 0): 0/8 | Number of Rats Exhibiting Estrogenic Response/Number of Rats Treated ([2]; sc, 3.0 mg/kg/day, Day 1): 0/8 | Number of Rats Exhibiting Estrogenic Response/Number of Rats Treated ([2]; sc, 3.0 mg/kg/day, Day 2): 3/8 | Number of Rats Exhibiting Estrogenic Response/Number of Rats Treated ([2]; sc, 3.0 mg/kg/day, Day 3): 8/8 | Number of Rats Exhibiting Estrogenic Response/Number of Rats Treated ([2]; sc, 3.0 mg/kg/day, Day 4): 8/8 | Number of Rats Exhibiting Estrogenic Response/Number of Rats Treated ([2]; sc, 3.0 mg/kg/day, Day 5): 8/8 | Number of Rats Exhibiting Estrogenic Response/Number of Rats Treated ([2]; sc, 3.0 mg/kg/day, Day 6): 8/8 | Number of Rats Exhibiting Estrogenic Response/Number of Rats Treated ([2]; sc, 3.0 mg/kg/day, Day 7, 3 mg/kg/day): all rats and 8/8 | relative binding constant compared to 17β-estradiol (100%) [3]: 6.25% | uterotrophic activity (immature rat uterus; 1979): very weak uterotrophic activity | uterotrophic activity (immature rat uterus; 1980): very weak uterotrophic activity
